Where two headings read alike, the source gives them in different places.
Key:
[1] = room temperature; cited from earlier work
[2] = format: physicochemical; conditions: nonylphenol
Description: From the group of the phenols as defined above and substituted by aliphatic radicals, those are advantageously selected for the use according to the invention, whose melting point is below 90° C., preferably below 50° C. and especially below 20°-30° C. A low melting point of the phenol derivatives used allows the process to be carried out at correspondingly low temperatures, which has a very favorable effect on the partition coefficient KD. KD is defined as follows: [formula]
The phases were then allowed to settle and were separated, and the concentration of NMP in the two phases was determined.
After the phases had been allowed to settle, these were separated, and the concentration of NMP in the two phases was determined.
Thereupon, the phases were allowed to settle and were separated, and the concentration of NMP in the two phases was determined.
[…] After the phases had been allowed to settle, these were separated, and the concentration of NMP in the two phases was determined.

[3] = Example 1a, feed 35% NMP, phase volume ratio 1:4, room temperature
[4] = Example 1b, feed 35% NMP, phase volume ratio 1:6, room temperature
[5] = Example 1c, feed 35% NMP, phase volume ratio 1:10, room temperature
[6] = Example 1e, feed 33% NMP, phase ratio 1:2, 70° C.
[7] = Example 1f, feed 33% NMP, phase volume ratio 1:10, 70° C.
[8] = Example 1d, feed 9% NMP, phase volume ratio 1:1, room temperature

Structure (SMILES)	solubility in water [1] [% by weight]	Aqueous raffinate phase (% by weight of NMP) [2, 3] [% by weight]	Organic extract phase (% by weight of NMP) [2, 3] [% by weight]	Aqueous raffinate phase (% by weight of NMP) [2, 4] [% by weight]	Organic extract phase (% by weight of NMP) [2, 4] [% by weight]	Aqueous raffinate phase (% by weight of NMP) [2, 5] [% by weight]	Organic extract phase (% by weight of NMP) [2, 5] [% by weight]	Aqueous raffinate phase (% by weight of NMP) [2, 6] [% by weight]	Organic extract phase (% by weight of NMP) [2, 6] [% by weight]	Aqueous raffinate phase (% by weight of NMP) [2, 7] [% by weight]	Organic extract phase (% by weight of NMP) [2, 7] [% by weight]	Aqueous raffinate phase (% by weight of NMP) [2, 8] [% by weight]	Organic extract phase (% by weight of NMP) [2, 8] [% by weight]
Cc1cc(C)cc(O)c1 [3,5-dimethylphenol]	0.49	–	–	–	–	–	–	–	–	–	–	–	–
CN1CCCC1=O [NMP, N-methyl-2-pyrrolidone]	–	0.75	8.2	0.30	5.8	0.12	3.4	9.0	12.4	1.0	3.4	0.64	8.3
Cc1cccc(O)c1 [m-cresol]	2.3	–	–	–	–	–	–	–	–	–	–	–	–

Source: patent publication US5068358A, “Process for extracting N-methyl-2-pyrrolidone” (Hoechst Aktiengesellschaft, priority 1988, dated 1991)
